In patent publication US9416154B2, “5′-substituted nucleoside derivatives and methods of use thereof for the treatment of viral diseases” (priority 2011, dated 2016):
pEC50: −log10 of the molar value.

Test system: HCV replicon (1b)
Experiment: Cell-based HCV replicon assay
Settings: Hepatitis C virus, 72 h, read-out: 1b EC50, replicon cells, 3-day incubation, replicon RNA by real time PCR (Taqman)
Protocol: To measure cell-based anti-HCV activity of selected compounds of the present invention, replicon cells were seeded at 5000 cells/well in 96-well collagen I-coated Nunc plates in the presence of the test compound. Various concentrations of test compound, typically in 10 serial 2-fold dilutions, were added to the assay mixture, with the starting concentration ranging from 250 μM to 1 μM. The final concentration of dimethylsulfoxide was 0.5%, fetal bovine serum was 5%, in the assay media. Cells were harvested on day 3 by the addition of 1× cell lysis buffer (Ambion cat #8721). The replicon RNA level was measured using real time PCR (Taqman assay). The amplicon was located in 5B. The PCR primers were: 5B.2F, ATGGACAGGCGCCCTGA (SEQ ID. NO. 1); 5B.2R, […] (SEQ ID. NO. 2); the probe sequence was FAM-labeled CACGCCATGCGCTGCGG (SEQ ID. NO. 3). GAPDH RNA was used as endogenous control and was amplified in the same reaction as NS5B (multiplex PCR) using primers and VIC-labeled probe recommended by the manufacturer (PE Applied Biosystem). The real-time RT-PCR reactions were run on ABI PRISM 7900HT Sequence Detection System using the following program: 48° C. for 30 minutes, 95° C. for 10 minutes, 40 cycles of 95° C. for 15 sec, 60° C. for 1 minute. The ΔCT values (CT5B-CTGAPDH) were plotted against the concentration of test compound and fitted to the sigmoid dose-response model using XLfit4 (MDL). EC50 was defined as the concentration of inhibitor necessary to achieve ΔCT=1 over the projected baseline; EC90 the concentration necessary to achieve ΔCT=3.2 over the baseline. Alternatively, to quantitate the absolute amount of replicon RNA, a standard curve was established by including serially diluted T7 transcripts of replicon RNA in the Taqman assay. All Taqman reagents were from PE Applied Biosystems. Such an assay procedure was described in detail in e.g. Malcolm et al., Antimicrobial Agents and Chemotherapy 50: 1013-1020 (2006).

| SMILES | pEC50 |
| --- | --- |
| CCOC(=O)[C@H](C)NP(=O)(Oc1ccc(Cl)cc1)OC(C)[C@H]1O[C@@H](n2ccc3c(N)ncnc32)[C@](C)(F)[C@@H]1O (stereo partly shown) [Compound 20] | < 4.00 |
| CC[C@@H](OP(=O)(N[C@@H](C)C(=O)OC)Oc1ccccc1)[C@H]1O[C@@H](n2cc(F)c3c(N)ncnc32)[C@](C)(O)[C@@H]1O (stereo partly shown) [Compound 10] | 4.82 |
| CCCCOC(=O)[C@H](C)NP(=O)(Oc1cccc2ccccc12)O[C@H](CC)[C@H]1O[C@@H](n2ccc3c(N)ncnc32)[C@](C)(O)[C@@H]1O (stereo partly shown) [Compound 8] | 4.89 |
| CC(C)OC(=O)[C@H](C)NP(=O)(Oc1ccccc1)OC(C)[C@H]1O[C@@H](n2ccc3c(N)ncnc32)[C@](C)(F)[C@@H]1O (stereo partly shown) [Compound 17] | < 4.00 |
| COC(=O)[C@H](C)NP(=O)(Oc1ccccc1)O[C@H](C)[C@H]1O[C@@H](n2ccc3c(N)ncnc32)[C@](C)(O)[C@@H]1O (stereo partly shown) [Compound 34] | < 4.00 |
| CC(C)OC(=O)[C@H](C)NP(=O)(Oc1cccc2ccccc12)OC(C)(C)[C@H]1O[C@@H](n2ccc3c(N)ncnc32)[C@](C)(F)[C@@H]1O (stereo partly shown) [Compound 32] | < 4.70 |
| COC(=O)[C@H](C)NP(=O)(Oc1cccc2ccccc12)OC(C)[C@H]1O[C@@H](n2ccc3c(N)ncnc32)[C@](C)(O)[C@@H]1O (stereo partly shown) [Compound 42] | 5.32 |
| COC(=O)[C@H](C)NP(=O)(Oc1ccccc1)O[C@@H](C)[C@H]1O[C@@H](n2cc(F)c3c(N)ncnc32)[C@](C)(O)[C@@H]1O (stereo partly shown) [Compound 12] | 4.41 |
| CCOC(=O)[C@H](C)NP(=O)(Oc1ccccc1)O[C@@H](C)[C@H]1O[C@@H](n2ccc3c(N)ncnc32)[C@](C)(O)[C@@H]1O (stereo partly shown) [Compound 39] | < 4.00 |
| CC(OP(=O)(N[C@@H](C)C(=O)OCC(C)(C)C)Oc1ccccc1)[C@H]1O[C@@H](n2ccc3c(N)ncnc32)[C@](C)(O)[C@@H]1O (stereo partly shown) [Compound 41] | 4.74 |
| COC(=O)[C@H](C)NP(=O)(Oc1ccccc1)O[C@H](C)[C@H]1O[C@@H](n2cc(F)c3c(N)ncnc32)[C@](C)(O)[C@@H]1O (stereo partly shown) [Compound 11] | 4.43 |
| CC(C)OC(=O)[C@H](C)NP(=O)(Oc1ccccc1)OC(C)[C@H]1O[C@@H](n2ccc3c(N)ncnc32)[C@](C)(O)[C@@H]1O (stereo partly shown) [Compound 43] | 4.85 |
| COC(=O)[C@H](C)NP(=O)(Oc1ccccc1)O[C@@H](C)[C@H]1O[C@@H](n2ccc3c(N)ncnc32)[C@](C)(O)[C@@H]1O (stereo partly shown) [Compound 35] | < 4.00 |
| CCOC(=O)[C@H](C)NP(=O)(Oc1ccccc1)O[C@H](C)[C@H]1O[C@@H](n2ccc3c(N)ncnc32)[C@](C)(O)[C@@H]1O (stereo partly shown) [Compound 38] | < 4.00 |
| COC(=O)[C@H](C)NP(=O)(Oc1ccccc1)OC(C)[C@H]1O[C@@H](n2ccc3c(N)ncnc32)[C@](C)(O)[C@@H]1O (stereo partly shown) [Compound 40] | 4.68 |
| CC(C)OC(=O)[C@H](C)NP(=O)(Oc1ccc(Cl)cc1)OC(C)[C@H]1O[C@@H](n2ccc3c(N)ncnc32)[C@](C)(F)[C@@H]1O (stereo partly shown) [Compound 21] | < 4.00 |
| CC(C)OC(=O)[C@H](C)NP(=O)(Oc1cccc2ccccc12)OC(C)[C@H]1O[C@@H](n2ccc3c(N)ncnc32)[C@](C)(F)[C@@H]1O (stereo partly shown) [Compound 19] | < 4.70 |
| CCOC(=O)[C@H](C)NP(=O)(Oc1cccc2ccccc12)OC(C)[C@H]1O[C@@H](n2ccc3c(N)ncnc32)[C@](C)(F)[C@@H]1O (stereo partly shown) [Compound 18] | < 4.00 |
| CCCCOC(=O)[C@H](C)NP(=O)(Oc1cccc2ccccc12)O[C@H](CC)[C@H]1O[C@@H](n2cc(F)c3c(N)ncnc32)[C@](C)(O)[C@@H]1O (stereo partly shown) [Compound 6] | 5.03 |
| CC(C)OC(=O)[C@H](C)NP(=O)(Oc1ccccc1Cl)OC(C)[C@H]1O[C@@H](n2ccc3c(N)ncnc32)[C@](C)(F)[C@@H]1O (stereo partly shown) [Compound 23] | < 4.00 |

Test system: not listed separately
Experiment: Cytotoxicity (MTS assay or GAPDH RNA readout)
Format: cell-based
Settings: human, replicon-containing Huh 7 cells, 3-day incubation, MTS or GAPDH RNA readout; read-out: 1b CC50
Protocol: The effect of the nucleoside derivatives on the proliferation and metabolism of Huh 7 hepatoma cells containing the subgenomic HCV replicon was measured using the MTS assay. Briefly, cells were seeded and dosed with compounds exactly as described in Example 13 above, for replicon EC50 determination. After a 3-day compound incubation period, the MTS assay was performed in accordance with the manufacturer's protocol for the CellTiter 96 Aqueous One Solution Cell Proliferation Assay (Promega, Catalog #G358). Alternatively, after a 3-day compound incubation, the amount of glyceraldehyde-3-phosphate dehydrogenase (GAPDH) RNA in replicon-containing Huh 7 cells was determined using qRT-PCR. CC50 values were derived from 10 serial 2-fold dilutions of the inhibitor in duplicate that yielded 50% inhibition of the MTS or GAPDH RNA readout by comparison with cells treated with vehicle control.

| SMILES | CC50 at 3 day |
| --- | --- |
| CCOC(=O)[C@H](C)NP(=O)(Oc1ccc(Cl)cc1)OC(C)[C@H]1O[C@@H](n2ccc3c(N)ncnc32)[C@](C)(F)[C@@H]1O (stereo partly shown) [Compound 20] | > 100 µM |
| CC[C@@H](OP(=O)(N[C@@H](C)C(=O)OC)Oc1ccccc1)[C@H]1O[C@@H](n2cc(F)c3c(N)ncnc32)[C@](C)(O)[C@@H]1O (stereo partly shown) [Compound 10] | 20 µM |
| CCCCOC(=O)[C@H](C)NP(=O)(Oc1cccc2ccccc12)O[C@H](CC)[C@H]1O[C@@H](n2ccc3c(N)ncnc32)[C@](C)(O)[C@@H]1O (stereo partly shown) [Compound 8] | 30 µM |
| CC(C)OC(=O)[C@H](C)NP(=O)(Oc1ccccc1)OC(C)[C@H]1O[C@@H](n2ccc3c(N)ncnc32)[C@](C)(F)[C@@H]1O (stereo partly shown) [Compound 17] | > 100 µM |
| COC(=O)[C@H](C)NP(=O)(Oc1ccccc1)O[C@H](C)[C@H]1O[C@@H](n2ccc3c(N)ncnc32)[C@](C)(O)[C@@H]1O (stereo partly shown) [Compound 34] | > 100 µM |
| CC(C)OC(=O)[C@H](C)NP(=O)(Oc1cccc2ccccc12)OC(C)(C)[C@H]1O[C@@H](n2ccc3c(N)ncnc32)[C@](C)(F)[C@@H]1O (stereo partly shown) [Compound 32] | > 20 µM |
| COC(=O)[C@H](C)NP(=O)(Oc1cccc2ccccc12)OC(C)[C@H]1O[C@@H](n2ccc3c(N)ncnc32)[C@](C)(O)[C@@H]1O (stereo partly shown) [Compound 42] | > 100 µM |
| COC(=O)[C@H](C)NP(=O)(Oc1ccccc1)O[C@@H](C)[C@H]1O[C@@H](n2cc(F)c3c(N)ncnc32)[C@](C)(O)[C@@H]1O (stereo partly shown) [Compound 12] | > 100 µM |
| CCOC(=O)[C@H](C)NP(=O)(Oc1ccccc1)O[C@@H](C)[C@H]1O[C@@H](n2ccc3c(N)ncnc32)[C@](C)(O)[C@@H]1O (stereo partly shown) [Compound 39] | > 100 µM |
| CC(OP(=O)(N[C@@H](C)C(=O)OCC(C)(C)C)Oc1ccccc1)[C@H]1O[C@@H](n2ccc3c(N)ncnc32)[C@](C)(O)[C@@H]1O (stereo partly shown) [Compound 41] | > 100 µM |
| COC(=O)[C@H](C)NP(=O)(Oc1ccccc1)O[C@H](C)[C@H]1O[C@@H](n2cc(F)c3c(N)ncnc32)[C@](C)(O)[C@@H]1O (stereo partly shown) [Compound 11] | > 100 µM |
| CC(C)OC(=O)[C@H](C)NP(=O)(Oc1ccccc1)OC(C)[C@H]1O[C@@H](n2ccc3c(N)ncnc32)[C@](C)(O)[C@@H]1O (stereo partly shown) [Compound 43] | 98 µM |
| COC(=O)[C@H](C)NP(=O)(Oc1ccccc1)O[C@@H](C)[C@H]1O[C@@H](n2ccc3c(N)ncnc32)[C@](C)(O)[C@@H]1O (stereo partly shown) [Compound 35] | > 100 µM |
| CCOC(=O)[C@H](C)NP(=O)(Oc1ccccc1)O[C@H](C)[C@H]1O[C@@H](n2ccc3c(N)ncnc32)[C@](C)(O)[C@@H]1O (stereo partly shown) [Compound 38] | > 100 µM |
| COC(=O)[C@H](C)NP(=O)(Oc1ccccc1)OC(C)[C@H]1O[C@@H](n2ccc3c(N)ncnc32)[C@](C)(O)[C@@H]1O (stereo partly shown) [Compound 40] | > 100 µM |
| CC(C)OC(=O)[C@H](C)NP(=O)(Oc1ccc(Cl)cc1)OC(C)[C@H]1O[C@@H](n2ccc3c(N)ncnc32)[C@](C)(F)[C@@H]1O (stereo partly shown) [Compound 21] | > 100 µM |
| CC(C)OC(=O)[C@H](C)NP(=O)(Oc1cccc2ccccc12)OC(C)[C@H]1O[C@@H](n2ccc3c(N)ncnc32)[C@](C)(F)[C@@H]1O (stereo partly shown) [Compound 19] | > 20 µM |
| CCOC(=O)[C@H](C)NP(=O)(Oc1cccc2ccccc12)OC(C)[C@H]1O[C@@H](n2ccc3c(N)ncnc32)[C@](C)(F)[C@@H]1O (stereo partly shown) [Compound 18] | > 100 µM |
| CCCCOC(=O)[C@H](C)NP(=O)(Oc1cccc2ccccc12)O[C@H](CC)[C@H]1O[C@@H](n2cc(F)c3c(N)ncnc32)[C@](C)(O)[C@@H]1O (stereo partly shown) [Compound 6] | 5.7 µM |
| CC(C)OC(=O)[C@H](C)NP(=O)(Oc1ccccc1Cl)OC(C)[C@H]1O[C@@H](n2ccc3c(N)ncnc32)[C@](C)(F)[C@@H]1O (stereo partly shown) [Compound 23] | > 100 µM |
